Measurements: patent publication US4882420A, “Dihalo-statine substituted renin inhibitors” (The Upjohn Company, priority 1986, dated 1989)

Molecular target: T1, renin (plasma renin activity of human plasma) (Homo sapiens, UniProt P00797)
T1 construct: Lyophilized human plasma with 0.1% EDTA is obtained from New England Nuclear; tissue New England Nuclear Plasma Renin Activity Control; host or cells: human plasma (lyophilized, reconstituted)
T1 sequence (P00797 67-406): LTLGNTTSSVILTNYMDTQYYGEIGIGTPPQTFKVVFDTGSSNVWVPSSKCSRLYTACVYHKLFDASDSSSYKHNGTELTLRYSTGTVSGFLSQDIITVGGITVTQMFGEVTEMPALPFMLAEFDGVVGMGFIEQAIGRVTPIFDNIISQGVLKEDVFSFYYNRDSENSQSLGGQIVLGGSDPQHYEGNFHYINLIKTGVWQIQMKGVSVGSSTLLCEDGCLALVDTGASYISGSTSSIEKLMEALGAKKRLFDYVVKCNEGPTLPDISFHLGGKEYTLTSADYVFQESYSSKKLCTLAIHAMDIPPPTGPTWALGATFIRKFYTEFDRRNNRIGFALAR
Test: GAMMACOAT plasma renin activity (PRA) radioimmunoassay, inhibition of angiotensin I generation in reconstituted human plasma
Type: biochemical
Conditions: for potency estimated from few doses: reconstituted lyophilized human plasma, 90 minutes at 37° C., estimated by plotting two inhibitor concentrations, read-out: IC50 (I50, concentration producing 50% inhibition of plasma renin activity)
Experimental: Lyophilized human plasma with 0.1% EDTA is obtained from New England Nuclear, North Billerica, Mass. 01862 as "Plasma Renin Activity Control". This lyophilized plasma is reconstituted, on the day of the assay, with cold sterile distilled water according to directions on the vial. The plasma renin activity (PRA) of the reconstituted plasma is assayed with "GAMMACOAT [^125 I] Plasma Renin Activity Radioimmunoassay Kit" supplied by Clinical Assays, a Division of Travenol Laboratories, Inc., Cambridge, Mass. 02139. The procedure used with these kits is carried out essentially as described in the literature which accompanies them. The initial (enzymatic generation of Angiotensin 1) step is modified slightly to accommodate the testing of renin inhibitors and to minimize the amount of plasma required to perform the assay. Thus, for every milliliter of reconstituted plasma used in the assay, there is added and vortexed 10 μl of PMSF (0.3M phenylmethylsulfonyl fluoride in ethanol) and 100 μl of maleate generation buffer, both provided in the kit. 250 μl of this mixture is then transferred to each tube used in the generation step along with 10 μl of the potential renin inhibitor suspended or dissolved in 1% Tween 80 in water. […]
In the case of renin inhibitory peptide (RIP), 100 μl of the 4° C. blank is added to a GAMMACOAT tube. […] The tubes are then counted in a gamma counter. The results of the RIP are evaluated with the Rodbard Radioimmunoassay Program and the plasma renin activity (PRA) is expressed as […]. […] In addition to I50 values, relative potencies are also calculated. A relative potency is determined by comparing the I50 of RIP to the I50 of the compound. However, it must be emphasized that relative potencies are calculated from the I50 obtained for RIP on the day the compound is assayed and not from the average I50 for RIP.
It has been determined that the GAMMACOAT-PRA assay is a suitable replacement for the RENAK assay (supplied by Hoffman-LaRoche and previously known as a diagnostic test for high renin states) to determine the activity of potential renin inhibitors.

Row | potency estimated from few doses [nM] | relative potency (I50 of RIP compared to I50 of the compound) (relative to RIP (H-Pro-His-Pro-Phe-His-Phe-Phe-Val-Tyr-Lys-OH) assayed on the same day) | SMILES
1 | 12 | 1,000 | CC[C@H](C)[C@H](NC(=O)C(F)(F)[C@H](O)[C@H](CC(C)C)NC(=O)[C@H](Cc1c[nH]cn1)NC(=O)[C@H](Cc1ccccc1)NC(=O)OC(C)(C)C)C(=O)NCc1ccccn1 [N-tert-butyloxycarbonyl-L-phenylalanyl-L-histidyl-4S-amino-2,2-difluoro-3R-hydroxy-4-(2-methylpropyl)-1-oxobutyl-L-isoleucyl-2-pyridylmethylamide]
2 | 1.4 |  | CC[C@H](C)[C@H](NC(=O)C(F)(F)C(=O)C(CC(C)C)NC(=O)[C@H](Cc1c[nH]cn1)NC(=O)[C@H](Cc1ccccc1)NC(=O)OC(C)(C)C)C(=O)NCc1ccccn1 (stereo partly drawn) [N-tert-butyloxycarbonyl-L-phenylalanyl-L-histidyl-4-amino-2,2-difluoro-4-(2-methylpropyl)-1,3-dioxobutyl-L-isoleucyl-2-pyridylmethylamide]
